Assay [1] concerns the target PI3Kγ (p110γ) Recombinant Human Protein (Homo sapiens (Human), UniProt P48736). Briefly: PI3K-γ Scintillation Proximity Assay. The conditions noted are these: read-out: PI3K-gamma SPA IC50. Format: biochemical. An excerpt: Example B. PI3K-γ Scintillation Proximity Assay
[γ-^33P]ATP (10 mCi/mL) and Wheat Germ Agglutinin (WGA) YSi SPA Scintillation Beads was purchased from Perkin-Elmer (Waltham, Mass.). Lipid kinase substrate, D-myo-Phosphatidylinositol 4,5-bisphosphate (PtdIns(4,5)P2)D (+)-sn-1,2-di-O-octanoylglyceryl, 3-O-phospho linked (PIP2), CAS 204858-53-7, was purchased from Echelon Biosciences (Salt Lake City, Utah). PI3Kγ (p110γ) Recombinant Human Protein was purchased from Life technology (Grand Island, N.Y.). ATP, MgCl2, DTT, EDTA, MOPS and CHAPS were purchased from Sigma-Aldrich (St. Louis, Mo.).
(§1) The kinase reaction was conducted in polystyrene 384-well Greiner Bio-one white plate from Thermo Fisher Scientific in a final volume of 25 μL. Inhibitors were first diluted serially in DMSO and added to the plate wells before the addition of other reaction components. The final concentration of DMSO in the assay was 2%. The PI3Kγ assay was carried out at room temperature in 20 mM MOPS, pH 6.7, 10 mM MgCl2, 5 mM DTT and CHAPS 0.03%. Reactions were initiated by the addition of ATP, the final reaction mixture consisted of 20 μM PIP2, 2 μM ATP, 0.5 μCi [γ-^33P] ATP, 13 nM PI3Kγ. Reactions were incubated for 120 min and terminated by the addition of 40 μL SPA beads suspended in quench buffer: 163 mM potassium phosphate pH 7.8, 20% glycerol, 25 mM EDTA. The final concentration of SPA beads is 1.0 mg/mL. After the plate sealing, plates were shaken overnight at room temperature and centrifuged at 1500 rpm for 10 min, the radioactivity of the product was determined by scintillation counting on Topcount (Perkin-Elmer). IC50 determination was performed by fitting the curve of percent of the solvent control activity versus the log of the inhibitor concentration using the GraphPad Prism 6.0 software.

Assay [2] addresses PI3Kδ (p110δ/p85α) Recombinant Human Protein (Homo sapiens (Human), UniProt O00329). Briefly: PI3Kδ Scintillation Proximity Assay. Particulars: read-out: PI3K-delta SPA IC50. It is filed as biochemical.
Text: Example C. PI3Kδ Scintillation Proximity Assay
[γ-^33P]ATP (10 mCi/mL) and Wheat Germ Agglutinin (WGA) YSi SPA Scintillation Beads was purchased from Perkin-Elmer (Waltham, Mass.). Lipid kinase substrate, D-myo-Phosphatidylinositol 4,5-bisphosphate (PtdIns(4,5)P2)D (+)-sn-1,2-di-O-octanoylglyceryl, 3-O-phospho linked (PIP2), CAS 204858-53-7, was purchased from Echelon Biosciences (Salt Lake City, Utah). PI3Kδ (p110δ/p85α) Recombinant Human Protein was purchased from Eurofins (St Charles, Mo.). ATP, MgCl2, DTT, EDTA, MOPS and CHAPS were purchased from Sigma-Aldrich (St. Louis, Mo.).
as §1, with “PI3Kδ” for “PI3Kγ”, “3.4” for “13”, “PI3Kδ.” for “PI3Kγ.”
(Scintillation proximity formats need no separation of bound from free tracer.)

pIC50: −log10 of the molar value. Structures can show the parent of a compound that is named as a salt.

Sequence of PI3Kδ (p110δ/p85α) Recombinant Human Protein (O00329 whole entry): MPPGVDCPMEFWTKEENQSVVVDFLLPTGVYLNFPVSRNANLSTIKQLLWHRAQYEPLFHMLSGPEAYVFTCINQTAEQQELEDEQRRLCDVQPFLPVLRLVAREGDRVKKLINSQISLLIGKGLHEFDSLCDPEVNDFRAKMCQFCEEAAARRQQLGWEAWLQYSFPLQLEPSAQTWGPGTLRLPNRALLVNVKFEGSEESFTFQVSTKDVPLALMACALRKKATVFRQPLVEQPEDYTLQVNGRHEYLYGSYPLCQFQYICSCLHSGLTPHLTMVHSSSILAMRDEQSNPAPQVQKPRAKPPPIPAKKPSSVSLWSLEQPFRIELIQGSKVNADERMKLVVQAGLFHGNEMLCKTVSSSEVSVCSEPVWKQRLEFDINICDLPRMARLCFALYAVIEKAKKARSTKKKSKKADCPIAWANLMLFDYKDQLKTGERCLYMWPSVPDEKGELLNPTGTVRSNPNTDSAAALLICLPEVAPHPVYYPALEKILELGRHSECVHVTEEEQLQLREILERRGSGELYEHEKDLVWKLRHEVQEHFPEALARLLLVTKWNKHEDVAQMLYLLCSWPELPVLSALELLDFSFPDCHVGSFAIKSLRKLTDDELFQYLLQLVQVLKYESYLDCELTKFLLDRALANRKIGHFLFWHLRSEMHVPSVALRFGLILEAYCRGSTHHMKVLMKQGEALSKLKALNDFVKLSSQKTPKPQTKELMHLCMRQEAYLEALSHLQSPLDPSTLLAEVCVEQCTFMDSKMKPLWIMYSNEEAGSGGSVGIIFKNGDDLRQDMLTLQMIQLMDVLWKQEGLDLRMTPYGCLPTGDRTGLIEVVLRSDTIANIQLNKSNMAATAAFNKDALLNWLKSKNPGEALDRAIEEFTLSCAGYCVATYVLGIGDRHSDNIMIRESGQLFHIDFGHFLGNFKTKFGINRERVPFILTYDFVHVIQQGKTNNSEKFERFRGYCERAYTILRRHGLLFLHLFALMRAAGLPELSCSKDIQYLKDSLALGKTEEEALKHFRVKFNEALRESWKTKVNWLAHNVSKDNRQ
Sequence of PI3Kδ (p110δ/p85α) Recombinant Human Protein (P27986 whole entry partner): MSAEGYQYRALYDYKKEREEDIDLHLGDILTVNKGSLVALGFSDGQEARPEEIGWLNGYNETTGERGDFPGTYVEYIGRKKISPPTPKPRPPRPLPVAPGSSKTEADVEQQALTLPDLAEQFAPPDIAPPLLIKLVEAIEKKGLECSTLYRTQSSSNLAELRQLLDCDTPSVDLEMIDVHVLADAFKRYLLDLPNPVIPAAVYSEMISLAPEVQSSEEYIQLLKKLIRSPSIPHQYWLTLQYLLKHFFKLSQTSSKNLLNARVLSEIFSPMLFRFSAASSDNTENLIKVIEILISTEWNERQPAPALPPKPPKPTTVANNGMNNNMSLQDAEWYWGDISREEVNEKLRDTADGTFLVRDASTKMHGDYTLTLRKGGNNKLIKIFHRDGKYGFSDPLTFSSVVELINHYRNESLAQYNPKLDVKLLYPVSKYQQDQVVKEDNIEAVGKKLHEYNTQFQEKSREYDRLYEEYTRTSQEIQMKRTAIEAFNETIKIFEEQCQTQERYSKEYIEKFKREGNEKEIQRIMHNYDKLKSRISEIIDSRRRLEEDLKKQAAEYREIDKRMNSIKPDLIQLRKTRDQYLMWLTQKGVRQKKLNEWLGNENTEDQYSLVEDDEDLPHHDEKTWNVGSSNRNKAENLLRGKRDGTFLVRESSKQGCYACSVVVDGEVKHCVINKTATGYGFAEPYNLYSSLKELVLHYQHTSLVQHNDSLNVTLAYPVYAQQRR
Sequence of PI3Kγ (p110γ) Recombinant Human Protein (P48736 whole entry): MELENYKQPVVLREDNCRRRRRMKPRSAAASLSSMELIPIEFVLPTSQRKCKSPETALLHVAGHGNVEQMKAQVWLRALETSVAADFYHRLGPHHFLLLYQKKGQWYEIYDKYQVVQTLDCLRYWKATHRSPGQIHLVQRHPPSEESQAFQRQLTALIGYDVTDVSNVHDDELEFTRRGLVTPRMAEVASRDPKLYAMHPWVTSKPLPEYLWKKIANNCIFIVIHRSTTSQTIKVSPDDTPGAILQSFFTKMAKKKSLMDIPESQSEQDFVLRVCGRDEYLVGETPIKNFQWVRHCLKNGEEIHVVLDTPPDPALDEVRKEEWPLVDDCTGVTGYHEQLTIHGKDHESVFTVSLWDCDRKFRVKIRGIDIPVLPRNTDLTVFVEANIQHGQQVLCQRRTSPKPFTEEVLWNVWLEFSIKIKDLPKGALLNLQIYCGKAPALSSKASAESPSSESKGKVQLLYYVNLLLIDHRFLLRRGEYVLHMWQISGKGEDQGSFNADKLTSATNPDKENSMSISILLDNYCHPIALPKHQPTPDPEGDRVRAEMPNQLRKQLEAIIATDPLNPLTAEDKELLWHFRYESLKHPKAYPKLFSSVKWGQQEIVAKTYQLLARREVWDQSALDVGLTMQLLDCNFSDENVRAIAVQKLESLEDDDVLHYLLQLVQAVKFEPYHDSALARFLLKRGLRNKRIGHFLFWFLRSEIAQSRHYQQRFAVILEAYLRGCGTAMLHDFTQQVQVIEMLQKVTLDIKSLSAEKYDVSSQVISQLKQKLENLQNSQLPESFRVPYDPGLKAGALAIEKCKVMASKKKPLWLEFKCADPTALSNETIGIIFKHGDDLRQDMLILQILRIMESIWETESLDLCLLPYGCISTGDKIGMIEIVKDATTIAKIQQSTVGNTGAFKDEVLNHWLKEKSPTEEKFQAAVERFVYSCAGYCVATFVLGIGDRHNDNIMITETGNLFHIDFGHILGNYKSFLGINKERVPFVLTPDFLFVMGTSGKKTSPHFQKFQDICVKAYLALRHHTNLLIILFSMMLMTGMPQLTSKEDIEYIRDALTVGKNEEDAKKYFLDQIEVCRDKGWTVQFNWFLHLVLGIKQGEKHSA

For `CC(=O)N1CC=C(c2ccnc(-c3nc(C)c(C)[nH]3)c2)CC1` [Example 217, 1(4-(2-(4,5-Dimethyl-1H-imidazol-2-yl)pyridin-4-yl)-5,6-dihydropyridin-1(2H)-yl)ethanone trifluoroacetate salt], the pIC50 in assay [1] and in assay [2] was less than 6.30 throughout.

In the case of `COc1cncc(-c2ccnc(-c3cnc(NCC(C)C)[nH]3)c2)c1` [Example 64, N-Isobutyl-5-(5-methoxy-3,4′-bipyridin-2′-yl)-1H-imidazol-2-amine trifluoroacetate salt], the results for the pIC50 in assay [1] and in assay [2] were no less than 6.30 and less than 6.30, respectively.

Regarding `Cc1nc(-c2cc(-c3cncc(C(=O)N4CCC(c5ccccn5)C4)c3)ccn2)[nH]c1C` (racemic) [Example 170, (2′-(4,5-Dimethyl-1H-imidazol-2-yl)-3,4′-bipyridin-5-yl)(3-(pyridin-2-yl)pyrrolidin-1-yl)methanone trifluoroacetate salt], the pIC50 in assay [1] was no less than 7.00; in assay [2], no less than 7.30.

For `O=C(Nc1cncc(-c2ccnc(-c3ncc(-c4ccccc4)[nH]3)c2)c1)c1cccc(Cl)c1` [Example 134, 3-Chloro-N-(2′-(5-phenyl-1H-imidazol-2-yl)-3,4′-bipyridin-5-yl)benzamide], the pIC50 in assay [1] and in assay [2] was less than 6.30 each time.

As for `CCS(=O)(=O)n1cc(-c2ccnc(-c3ncc(-c4ccccc4)[nH]3)c2)cn1` [Example 45, 4-(1-(Ethylsulfonyl)-1H-pyrazol-4-yl)-2-(5-phenyl-1H-imidazol-2-yl)pyridine trifluoroacetate salt], the pIC50 in assay [1] and in assay [2] was no less than 6.30 each time.

Take `COCCNC(=O)c1cncc(-c2ccnc(-c3nc(C)c(C)[nH]3)c2)c1` [Example 166, 2′-(4,5-Dimethyl-1H-imidazol-2-yl)-N-(2-methoxyethyl)-3,4′-bipyridine-5-carboxamide trifluoroacetate salt]: the pIC50 in assay [1] is no less than 7.00; in assay [2], no less than 7.30.

Take `CCc1cnc(-c2cc(-c3cncc(N4CCOCC4)c3)ccn2)[nH]1` [Example 100, 4-(2′-(5-Ethyl-1H-imidazol-2-yl)-3,4′-bipyridin-5-yl)morpholine trifluoroacetate salt]: the pIC50 in assay [1] and in assay [2] was no less than 6.30 in each case.

As for `Cn1cc(-c2ccnc(-c3ncc(-c4ccccc4)[nH]3)c2)cn1` [Example 8, 4-(1-Methyl-1H-pyrazol-4-yl)-2-(5-phenyl-1H-imidazol-2-yl)pyridine trifluoroacetate salt], the pIC50 in assay [1] and in assay [2] was no less than 6.30 throughout.

On to `Cc1nc(-c2cc(C3=CCN(CC4CCOCC4)C3)ccn2)[nH]c1C` [Example 230, 2-(4,5-Dimethyl-1H-imidazol-2-yl)-4-(1-((tetrahydro-2H-pyran-4-yl)methyl)-2,5-dihydro-1H-pyrrol-3-yl)pyridine trifluoroacetate salt], for which the pIC50 in assay [1] and in assay [2] was less than 6.30 each time.

Turning to `CCCN(C)C(=O)c1cncc(-c2ccnc(-c3nc(C)c(C)[nH]3)c2)c1` [Example 210, 2′-(4,5-Dimethyl-1H-imidazol-2-yl)-N-methyl-N-propyl-3,4′-bipyridine-5-carboxamide], the pIC50 in assay [1] is no less than 7.00; in assay [2], no less than 6.30.

Regarding `CN(C)C(=O)Cn1cc(-c2ccnc(-c3ncc(-c4ccccc4)[nH]3)c2)cn1` [Example 49, N,N-Dimethyl-2-(4-(2-(5-phenyl-1H-imidazol-2-yl)pyridin-4-yl)-1H-pyrazol-1-yl)acetamide trifluoroacetate salt], the pIC50 in assay [1] and in assay [2] was less than 6.30 throughout.

Turning to `CCN(C)C(=O)c1nc(-c2cc(-c3cncc(N4CCOCC4)c3)ccn2)[nH]c1C` [Example 260, N-Ethyl-N,5-dimethyl-2-(5-morpholin-4-yl-3,4′-bipyridin-2′-yl)-1H-imidazole-4-carboxamide], the pIC50 in assay [1] and in assay [2] was no less than 6.30 throughout.

For the compound `CC(=O)N1CCC=C(c2ccnc(-c3nc(C)c(C)[nH]3)c2)C1` [Example 219, 1-(3-(2-(4,5-Dimethyl-1H-imidazol-2-yl)pyridin-4-yl)-5,6-dihydropyridin-1(2H)-yl)ethanone trifluoroacetate salt], the pIC50 in assay [1] and in assay [2] was less than 6.30 throughout.

In the case of `Cc1[nH]c(-c2cc(-c3cncc(S(C)(=O)=O)c3)ccn2)nc1C(=O)N(C)C` [Example 251, N,N,5-Trimethyl-2-[5-(methylsulfonyl)-3,4′-bipyridin-2′-yl]-1H-imidazole-4-carboxamide trifluoroacetate salt], the pIC50 was no less than 6.30 in assay [1] and no less than 7.00 in assay [2].

Take `Cc1[nH]c(-c2cc(-c3cncc(N4CCOCC4)c3)ccn2)nc1CN[C@H]1CCOC1` [Example 286, (3S)-N-{[5-Methyl-2-(5-morpholin-4-yl-3,4′-bipyridin-2′-yl)-1H-imidazol-4-yl]methyl}tetrahydrofuran-3-amine]: the pIC50 in assay [1] is less than 6.30; in assay [2], no less than 6.30.

On to `Cc1nc(-c2cc(-c3cncc(Cl)c3)ccn2)[nH]c1C` [Example 234, 5-Chloro-2′-(4,5-dimethyl-1H-imidazol-2-yl)-3,4′-bipyridine], for which the pIC50 in assay [1] and in assay [2] was no less than 7.00 in each case.

`CCNC(=O)Nc1cncc(-c2ccnc(-c3ncc(-c4ccccc4)[nH]3)c2)c1` [Example 139, N-Ethyl-N′-[2′-(5-phenyl-1H-imidazol-2-yl)-3,4′-bipyridin-5-yl]urea Trifluoroacetate Salt]: the pIC50 in assay [1] is no less than 6.30; in assay [2], no less than 7.00.

As to `Cc1nc(-c2cc(-c3cncc(C(=O)NCCC4CCOCC4)c3)ccn2)[nH]c1C` [Example 164, 2′-(4,5-Dimethyl-1H-imidazol-2-yl)-N-(2-(tetrahydro-2H-pyran-4-yl)ethyl)-3,4′-bipyridine-5-carboxamide trifluoroacetate salt], the pIC50 in assay [1] is no less than 6.30; in assay [2], no less than 7.30.

Regarding “4-(1-Methyl-3-(trifluoromethyl)-1H-pyrazol-5-yl)-2-(5-phenyl-1H-imidazol-2-yl)pyridine trifluoroacetate salt [Example 13]”, the pIC50 in assay [1] and in assay [2] was less than 6.30 each time.

With `O=S(=O)(c1ccccc1)N1CCC(c2c[nH]c(-c3cc(-c4cnn(Cc5ccc(Cl)cc5)c4)ccn3)n2)C1` (stereo not shown) [Example 302, 4-[1-(4-Chlorobenzyl)-1H-pyrazol-4-yl]-2-{4-[1-(phenylsulfonyl)pyrrolichn-3-yl]-1H-imidazol-2-yl}pyridine trifluoroacetate salt], the pIC50 in assay [1] and in assay [2] was no less than 6.30 in each case.

Turning to `O=C(Nc1cncc(-c2ccnc(-c3ncc(-c4ccccc4)[nH]3)c2)c1)c1ccccc1` [Example 132, N-(2′-(5-Phenyl-1H-imidazol-2-yl)-3,4′-bipyridin-5-yl)benzamide], the pIC50 in assay [1] and in assay [2] was no less than 6.30 throughout.

`Cc1nc(-c2cc(C3=CCCN(Cc4ccc(Cl)cc4)C3)ccn2)[nH]c1C` [Example 224, 4-(1-(4-Chlorobenzyl)-1,2,5,6-tetrahydropyridin-3-yl)-2-(4,5-dimethyl-1H-imidazol-2-yl)pyridine trifluoroacetate salt]: the pIC50 in assay [1] and in assay [2] was less than 6.30 in each case.

As for `Cc1[nH]c(-c2cc(-c3cncc(N4CCOCC4)c3)ccn2)nc1CNC1CCCC1` [Example 284, N-{[5-Methyl-2-(5-morpholin-4-yl-3,4′-bipyridin-2′-yl)-1H-imidazol-4-yl]methyl}cyclopentanamine], the figures for the pIC50 in assay [1] and in assay [2] were less than 6.30 and no less than 7.00, respectively.

Source of the values: patent US11352340B2, “Pyridine and pyridimine compounds as PI3K-gamma inhibitors” (Incyte Corporation, priority 2016, dated 2022).
